Measured values taken from patent US20120010242A1 (ALKERSTRAAT 30 A, priority 2009, published 2012).

What was measured:
[1] = molecular target: T1, adrenergic receptor Alpha 2A (Homo sapiens, UniProt P08913); test: pKi for adrenergic receptor Alpha2A (Table 1); format: binding
T1 sequence (P08913 1-465): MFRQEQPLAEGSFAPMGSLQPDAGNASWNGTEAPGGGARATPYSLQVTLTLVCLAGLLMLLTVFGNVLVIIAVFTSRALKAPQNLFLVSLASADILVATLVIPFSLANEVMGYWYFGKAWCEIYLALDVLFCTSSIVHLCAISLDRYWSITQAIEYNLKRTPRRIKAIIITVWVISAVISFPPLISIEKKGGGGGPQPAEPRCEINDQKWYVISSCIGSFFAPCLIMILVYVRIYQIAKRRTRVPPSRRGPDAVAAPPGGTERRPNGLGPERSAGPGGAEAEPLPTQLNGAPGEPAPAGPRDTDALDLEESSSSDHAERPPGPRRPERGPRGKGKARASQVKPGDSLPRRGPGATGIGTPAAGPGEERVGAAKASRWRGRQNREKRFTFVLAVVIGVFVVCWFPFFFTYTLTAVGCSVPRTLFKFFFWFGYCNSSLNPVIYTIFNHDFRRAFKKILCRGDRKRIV
Source text: (§1) The term “other 5HT receptors” as used herein relate to, for instance, 5-HT1 receptors (e.g. 5-HT1A, 5-HT1 B, 5-HT1D, 5-HT1 E, 5-HT1F), 5-HT2B, 5-HT2C, 5-HT6 (rat) and 5-HT7 (rat). The expression “selective affinity for the 5-HT2A receptor” relates to a receptor having a higher affinity for the 5-HT2A receptor than for other 5-HT receptors. The expression “selective affinity for the D4 receptor” means that the receptor has a higher affinity for the dopamine D4 receptor than for other dopamine receptors. The term “other dopamine receptors” relates to, for instance, D1, D2 and D3 dopamine receptors. pKi values of test compounds for dopamine receptors as well as 5-HT2A receptors can be measured using commonly known assays.

D4 receptor = molecular target: T2, D4 receptor (Homo sapiens, UniProt P21917); test: pKi for dopamine receptor D4 (Table 1); format: binding
T2 sequence (P21917 1-419): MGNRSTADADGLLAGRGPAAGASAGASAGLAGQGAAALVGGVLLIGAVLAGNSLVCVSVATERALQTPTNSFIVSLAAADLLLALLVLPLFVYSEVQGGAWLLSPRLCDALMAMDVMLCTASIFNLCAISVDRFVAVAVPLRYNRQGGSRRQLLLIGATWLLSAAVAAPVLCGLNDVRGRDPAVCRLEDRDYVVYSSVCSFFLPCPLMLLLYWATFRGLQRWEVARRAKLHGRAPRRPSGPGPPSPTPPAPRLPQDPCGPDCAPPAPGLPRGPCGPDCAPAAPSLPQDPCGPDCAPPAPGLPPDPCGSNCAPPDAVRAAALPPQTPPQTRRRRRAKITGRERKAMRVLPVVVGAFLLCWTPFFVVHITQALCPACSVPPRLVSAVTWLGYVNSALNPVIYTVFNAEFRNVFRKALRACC
Source text: as §1

D1 dopamine receptor = D1 dopamine receptor (Homo sapiens, UniProt P21728); test: pKi for dopamine receptor D1 (Table 1); format: binding
D1 dopamine receptor, sequence (P21728 whole entry): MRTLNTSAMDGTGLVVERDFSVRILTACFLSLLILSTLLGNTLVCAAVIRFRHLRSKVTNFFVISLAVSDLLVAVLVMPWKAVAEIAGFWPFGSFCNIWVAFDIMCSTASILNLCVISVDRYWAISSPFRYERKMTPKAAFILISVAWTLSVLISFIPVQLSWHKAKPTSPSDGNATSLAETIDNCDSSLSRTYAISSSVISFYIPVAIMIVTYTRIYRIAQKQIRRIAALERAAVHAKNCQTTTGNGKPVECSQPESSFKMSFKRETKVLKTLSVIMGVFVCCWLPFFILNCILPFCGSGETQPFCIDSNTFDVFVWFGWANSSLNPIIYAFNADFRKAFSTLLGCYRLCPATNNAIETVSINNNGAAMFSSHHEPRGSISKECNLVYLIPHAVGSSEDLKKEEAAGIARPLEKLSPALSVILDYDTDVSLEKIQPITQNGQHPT
Source text: (§2) The term “other dopamine receptors” relates to, for instance, D1, D2 and D3 dopamine receptors. pKi values of test compounds for dopamine receptors as well as 5-HT2A receptors can be measured using commonly known assays.

D3 dopamine receptor = D3 dopamine receptor (Homo sapiens, UniProt P35462); test: pKi for dopamine receptor D3 (Table 1); format: binding
D3 dopamine receptor, sequence (P35462 whole entry): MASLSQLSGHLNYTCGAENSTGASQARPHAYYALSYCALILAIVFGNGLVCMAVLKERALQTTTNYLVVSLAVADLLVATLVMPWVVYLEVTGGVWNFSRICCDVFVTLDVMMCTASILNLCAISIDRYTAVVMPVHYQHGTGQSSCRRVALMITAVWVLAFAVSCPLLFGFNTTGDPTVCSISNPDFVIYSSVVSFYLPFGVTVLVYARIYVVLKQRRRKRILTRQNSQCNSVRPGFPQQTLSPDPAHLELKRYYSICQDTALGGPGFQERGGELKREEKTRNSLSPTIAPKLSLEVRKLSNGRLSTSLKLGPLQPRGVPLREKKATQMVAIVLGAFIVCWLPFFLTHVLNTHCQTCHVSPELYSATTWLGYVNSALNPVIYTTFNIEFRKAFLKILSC
Source text: as §1

5-HT2A receptor = 5-HT2A receptor (Homo sapiens, UniProt P28223); test: pKi for 5HT2A receptor (Table 1); format: binding
5-HT2A receptor, sequence (P28223 whole entry): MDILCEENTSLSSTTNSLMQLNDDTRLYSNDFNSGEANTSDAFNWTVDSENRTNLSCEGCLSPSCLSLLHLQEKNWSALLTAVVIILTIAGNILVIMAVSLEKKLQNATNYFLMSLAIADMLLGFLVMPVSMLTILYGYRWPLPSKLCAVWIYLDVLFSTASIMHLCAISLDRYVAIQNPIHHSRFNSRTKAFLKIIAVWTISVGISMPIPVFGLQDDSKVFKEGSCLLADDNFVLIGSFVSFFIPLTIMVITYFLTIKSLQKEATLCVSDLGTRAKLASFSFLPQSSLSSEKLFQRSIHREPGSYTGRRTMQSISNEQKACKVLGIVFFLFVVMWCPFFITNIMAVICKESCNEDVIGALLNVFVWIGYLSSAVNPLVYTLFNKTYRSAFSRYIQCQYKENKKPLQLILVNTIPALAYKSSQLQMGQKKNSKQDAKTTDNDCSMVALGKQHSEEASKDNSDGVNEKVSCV
Source text: as §1

[2] = molecular target: T3, adrenergic receptor Alpha 1A (Homo sapiens, UniProt P35348); test: pKi for adrenergic receptor Alpha1A (Table 1); format: binding
T3 sequence (P35348 1-466): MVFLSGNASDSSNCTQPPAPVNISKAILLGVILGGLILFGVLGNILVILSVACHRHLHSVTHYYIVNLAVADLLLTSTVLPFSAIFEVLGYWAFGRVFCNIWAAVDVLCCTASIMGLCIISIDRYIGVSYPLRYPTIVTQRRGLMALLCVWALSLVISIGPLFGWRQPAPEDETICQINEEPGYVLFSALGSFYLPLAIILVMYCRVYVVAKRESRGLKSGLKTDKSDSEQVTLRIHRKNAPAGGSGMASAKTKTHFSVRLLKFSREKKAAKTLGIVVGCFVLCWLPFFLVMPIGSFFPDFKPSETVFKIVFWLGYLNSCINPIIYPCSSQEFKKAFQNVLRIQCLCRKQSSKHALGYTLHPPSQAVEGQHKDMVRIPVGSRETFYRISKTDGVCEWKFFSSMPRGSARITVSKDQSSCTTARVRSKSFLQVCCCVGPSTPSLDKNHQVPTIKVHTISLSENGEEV
Source text: as §2

5-HT1A receptor = molecular target: T4, 5-HT1A receptor (Homo sapiens, UniProt P08908); test: pKi for 5HT1A receptor (Table 1); format: binding
T4 sequence (P08908 1-422): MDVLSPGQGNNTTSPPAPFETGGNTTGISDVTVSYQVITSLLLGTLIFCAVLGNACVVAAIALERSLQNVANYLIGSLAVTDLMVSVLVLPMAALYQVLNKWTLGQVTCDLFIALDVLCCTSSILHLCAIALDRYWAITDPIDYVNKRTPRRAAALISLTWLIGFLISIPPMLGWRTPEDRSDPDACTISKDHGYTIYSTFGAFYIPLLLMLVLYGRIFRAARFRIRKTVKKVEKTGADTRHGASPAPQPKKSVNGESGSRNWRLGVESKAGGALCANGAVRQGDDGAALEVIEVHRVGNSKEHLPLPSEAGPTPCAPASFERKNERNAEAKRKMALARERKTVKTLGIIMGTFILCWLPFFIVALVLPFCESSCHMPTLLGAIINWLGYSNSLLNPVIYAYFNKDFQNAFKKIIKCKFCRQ
Source text: as §2

5-HT2C receptor = molecular target: T5, 5-HT2C receptor (Homo sapiens, UniProt P28335); test: pKi for 5HT2C receptor (Table 1); format: binding
T5 sequence (P28335 33-458): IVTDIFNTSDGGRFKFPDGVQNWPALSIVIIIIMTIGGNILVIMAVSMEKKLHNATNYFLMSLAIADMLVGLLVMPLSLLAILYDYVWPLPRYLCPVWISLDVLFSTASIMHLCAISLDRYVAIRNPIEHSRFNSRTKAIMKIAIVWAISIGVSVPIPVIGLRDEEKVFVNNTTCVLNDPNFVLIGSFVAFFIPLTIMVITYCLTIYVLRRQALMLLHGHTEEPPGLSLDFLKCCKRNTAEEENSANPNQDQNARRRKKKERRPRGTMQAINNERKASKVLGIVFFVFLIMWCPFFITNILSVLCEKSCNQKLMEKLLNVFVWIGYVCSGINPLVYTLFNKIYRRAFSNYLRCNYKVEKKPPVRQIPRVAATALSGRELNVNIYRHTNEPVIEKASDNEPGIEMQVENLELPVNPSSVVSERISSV
Source text: as §1

5-HT2B receptor = 5-HT2B receptor (Homo sapiens, UniProt P41595); test: pKi for 5HT2B receptor (Table 1); format: binding
5-HT2B receptor, sequence (P41595 whole entry): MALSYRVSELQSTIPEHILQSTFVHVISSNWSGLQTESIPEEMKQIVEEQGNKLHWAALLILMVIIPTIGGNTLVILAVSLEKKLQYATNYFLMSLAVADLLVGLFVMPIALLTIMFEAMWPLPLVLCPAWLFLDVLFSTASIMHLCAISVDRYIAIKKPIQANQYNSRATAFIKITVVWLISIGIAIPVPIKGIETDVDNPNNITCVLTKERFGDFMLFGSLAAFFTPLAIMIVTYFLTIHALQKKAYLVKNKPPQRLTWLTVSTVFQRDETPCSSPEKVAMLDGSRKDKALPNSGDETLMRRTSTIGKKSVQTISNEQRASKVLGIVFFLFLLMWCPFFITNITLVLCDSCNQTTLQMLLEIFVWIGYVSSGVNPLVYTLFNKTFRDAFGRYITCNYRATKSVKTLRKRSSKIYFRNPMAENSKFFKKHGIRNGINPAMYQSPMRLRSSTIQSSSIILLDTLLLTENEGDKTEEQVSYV
Source text: as §2

5-HT1D receptor = 5-HT1D receptor (Homo sapiens, UniProt P28221); test: pKi for 5HT1D receptor (Table 1); format: binding
5-HT1D receptor, sequence (P28221 whole entry): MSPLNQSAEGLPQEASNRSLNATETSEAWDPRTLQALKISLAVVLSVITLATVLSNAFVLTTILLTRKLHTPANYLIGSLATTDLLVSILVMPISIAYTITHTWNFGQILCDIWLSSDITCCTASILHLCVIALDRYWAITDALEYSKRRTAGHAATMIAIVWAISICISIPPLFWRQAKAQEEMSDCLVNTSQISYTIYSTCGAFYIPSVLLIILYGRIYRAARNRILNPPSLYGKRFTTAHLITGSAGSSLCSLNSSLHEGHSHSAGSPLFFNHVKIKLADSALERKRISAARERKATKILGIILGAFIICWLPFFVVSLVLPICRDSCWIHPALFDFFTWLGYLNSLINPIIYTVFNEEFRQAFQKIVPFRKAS

5-HT1B receptor = 5-HT1B receptor (Homo sapiens, UniProt P28222); test: pKi for 5HT1B receptor (Table 1); format: binding
5-HT1B receptor, sequence (P28222 whole entry): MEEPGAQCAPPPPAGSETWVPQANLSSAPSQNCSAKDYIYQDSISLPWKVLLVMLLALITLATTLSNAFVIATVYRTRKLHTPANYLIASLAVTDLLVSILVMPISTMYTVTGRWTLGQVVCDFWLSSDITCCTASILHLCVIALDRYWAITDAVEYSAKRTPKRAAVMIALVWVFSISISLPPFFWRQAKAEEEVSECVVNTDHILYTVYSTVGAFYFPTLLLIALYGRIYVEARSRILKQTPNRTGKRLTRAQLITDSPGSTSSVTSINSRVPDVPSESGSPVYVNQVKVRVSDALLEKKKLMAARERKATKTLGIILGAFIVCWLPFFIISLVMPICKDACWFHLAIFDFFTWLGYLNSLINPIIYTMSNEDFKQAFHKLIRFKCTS

[3] = tested on: patients with treatment refractory major depression; test: Semi-naturalistic open label study of low dose pipamperone in treatment refractory major depression; format: in vivo, human
Procedure: Design: Semi-naturalistic i.e. inclusion of every 'natural' patient in an outpatient practice but without concomitant use of mood enhancing drugs, open label Control: No Phase: Phase Ila-preliminary Proof of Concept Location: Belgium -Research Centre […] Adverse events are assessed on: body as a whole, central and peripheral nervous system, gastrointestinal, musculoskeletal, psychiatric, respiratory, skin and appendages, vascular and urinary, taking into account discontinued treatment due to adverse events. Laboratory parameters, ECG, bodyweight and vital signs are not measured since this is a naturalistic study.

other dopamine receptors = test: pKi towards other dopamine receptors; format: binding; details: dopamine receptors other than D4
Source text: (§3) The term “other 5HT receptors” as used herein relate to, for instance, 5-HT1 receptors (e.g. 5-HT1A, 5-HT1 B, 5-HT1D, 5-HT1 E, 5-HT1F), 5-HT2B, 5-HT2C, 5-HT6 (rat) and 5-HT7 (rat). […] The term “other dopamine receptors” relates to, for instance, D1, D2 and D3 dopamine receptors. pKi values of test compounds for dopamine receptors as well as 5-HT2A receptors can be measured using commonly known assays.

other 5HT receptors = test: pKi towards other 5HT receptors; format: binding; details: 5HT receptors other than 5-HT2A
Source text: as §3

5-HT7 (rat) receptor = 5-HT7 (rat) receptor (Rattus norvegicus, UniProt P32305); test: pKi for 5HT7 rat receptor (Table 1); format: binding
5-HT7 (rat) receptor, sequence (P32305 whole entry): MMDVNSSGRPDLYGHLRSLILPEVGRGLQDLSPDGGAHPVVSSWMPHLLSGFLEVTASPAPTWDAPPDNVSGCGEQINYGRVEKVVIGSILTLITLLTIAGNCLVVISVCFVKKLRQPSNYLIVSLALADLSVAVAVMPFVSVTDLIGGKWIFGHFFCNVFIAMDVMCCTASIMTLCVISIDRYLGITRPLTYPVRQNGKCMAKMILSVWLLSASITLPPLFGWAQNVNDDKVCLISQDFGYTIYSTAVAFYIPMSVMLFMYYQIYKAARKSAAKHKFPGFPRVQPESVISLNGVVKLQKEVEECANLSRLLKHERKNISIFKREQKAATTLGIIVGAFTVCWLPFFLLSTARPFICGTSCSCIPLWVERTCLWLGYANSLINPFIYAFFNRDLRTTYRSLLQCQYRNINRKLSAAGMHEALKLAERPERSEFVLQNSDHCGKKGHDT

5-HT6 (rat) receptor = 5-HT6 (rat) receptor (Rattus norvegicus, UniProt P31388); test: pKi for 5HT6 rat receptor (Table 1); format: binding
[4] = molecular target: adrenergic receptor Alpha 2C (Homo sapiens, UniProt P18825); test: pKi for adrenergic receptor Alpha2C (Table 1); format: binding
[5] = molecular target: adrenergic receptor Alpha 2B (Homo sapiens, UniProt P18089); test: pKi for adrenergic receptor Alpha2B (Table 1); format: binding
adrenergic receptor Alpha 2B, sequence (P18089 whole entry): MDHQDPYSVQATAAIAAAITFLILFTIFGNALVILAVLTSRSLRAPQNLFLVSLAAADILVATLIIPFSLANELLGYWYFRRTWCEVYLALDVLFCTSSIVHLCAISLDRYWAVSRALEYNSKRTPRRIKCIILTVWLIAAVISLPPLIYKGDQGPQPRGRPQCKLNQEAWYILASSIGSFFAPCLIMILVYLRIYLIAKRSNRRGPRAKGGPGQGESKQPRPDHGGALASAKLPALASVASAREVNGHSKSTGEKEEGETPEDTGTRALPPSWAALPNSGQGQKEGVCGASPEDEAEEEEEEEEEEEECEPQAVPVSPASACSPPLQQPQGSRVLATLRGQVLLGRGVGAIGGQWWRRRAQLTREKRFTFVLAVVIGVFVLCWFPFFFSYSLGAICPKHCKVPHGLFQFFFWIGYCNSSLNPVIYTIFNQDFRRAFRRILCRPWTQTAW

[6] = molecular target: adrenergic receptor Beta 1 (Homo sapiens, UniProt P08588); test: pKi for adrenergic receptor Beta1 (Table 1); format: binding
adrenergic receptor Beta 1, sequence (P08588 whole entry): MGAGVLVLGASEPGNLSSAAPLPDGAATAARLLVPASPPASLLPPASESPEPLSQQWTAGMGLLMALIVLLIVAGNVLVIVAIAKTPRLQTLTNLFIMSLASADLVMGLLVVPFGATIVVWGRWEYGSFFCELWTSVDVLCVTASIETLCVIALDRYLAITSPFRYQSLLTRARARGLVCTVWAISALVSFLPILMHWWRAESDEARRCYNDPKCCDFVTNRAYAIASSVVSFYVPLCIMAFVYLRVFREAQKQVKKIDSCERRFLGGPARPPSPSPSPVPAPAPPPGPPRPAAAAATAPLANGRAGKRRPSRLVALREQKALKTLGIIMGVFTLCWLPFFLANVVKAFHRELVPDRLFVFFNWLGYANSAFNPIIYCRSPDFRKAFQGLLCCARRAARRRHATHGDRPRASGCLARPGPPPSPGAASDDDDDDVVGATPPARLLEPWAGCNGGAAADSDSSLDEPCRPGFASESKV

[7] = molecular target: adrenergic receptor Beta 2 (Homo sapiens, UniProt P07550); test: pKi for adrenergic receptor Beta2 (Table 1); format: binding
D2 dopamine receptor = D2 dopamine receptor (Homo sapiens, UniProt P14416); test: pKi for dopamine receptor D2 (Table 1); format: binding
D2 dopamine receptor, sequence (P14416 whole entry): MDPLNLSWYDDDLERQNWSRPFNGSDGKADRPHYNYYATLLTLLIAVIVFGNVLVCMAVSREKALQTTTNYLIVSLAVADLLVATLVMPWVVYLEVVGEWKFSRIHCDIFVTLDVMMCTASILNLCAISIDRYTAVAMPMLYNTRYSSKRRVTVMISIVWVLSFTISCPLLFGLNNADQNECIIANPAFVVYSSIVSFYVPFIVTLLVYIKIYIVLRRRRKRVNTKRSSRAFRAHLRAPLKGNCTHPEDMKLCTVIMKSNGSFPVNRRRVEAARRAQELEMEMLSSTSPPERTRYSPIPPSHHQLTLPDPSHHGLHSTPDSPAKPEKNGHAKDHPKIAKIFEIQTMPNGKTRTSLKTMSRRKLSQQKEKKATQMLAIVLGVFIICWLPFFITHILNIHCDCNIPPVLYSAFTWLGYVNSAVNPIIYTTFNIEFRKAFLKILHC
Source text: as §2

5-HT1E receptor = 5-HT1E receptor (Homo sapiens, UniProt P28566); test: pKi for 5HT1E receptor (Table 1); format: binding
5-HT1E receptor, sequence (P28566 whole entry): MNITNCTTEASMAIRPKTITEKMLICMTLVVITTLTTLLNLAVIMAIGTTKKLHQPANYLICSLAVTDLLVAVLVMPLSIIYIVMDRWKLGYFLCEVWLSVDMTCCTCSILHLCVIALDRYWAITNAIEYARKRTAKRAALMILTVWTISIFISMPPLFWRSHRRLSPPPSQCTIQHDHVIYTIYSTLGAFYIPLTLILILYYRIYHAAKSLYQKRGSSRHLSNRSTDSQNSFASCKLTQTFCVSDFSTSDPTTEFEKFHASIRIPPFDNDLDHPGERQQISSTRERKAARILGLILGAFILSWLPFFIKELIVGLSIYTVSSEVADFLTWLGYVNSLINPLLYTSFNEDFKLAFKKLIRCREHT

patients = details: clinical trials; cited from earlier work

| SMILES | pKi Alpha2A [1] | pKi D4 (D4 receptor) | pKi D3 (D3 dopamine receptor) | pKi 5HT2A (5-HT2A receptor) | pKi Alpha1A [2] | pKi 5HT1A (5-HT1A receptor) | pKi 5HT2C (5-HT2C receptor) | other results |
| --- | --- | --- | --- | --- | --- | --- | --- | --- |
| CCN1CCC[C@H]1CNC(=O)c1c(O)c(Cl)cc(Cl)c1OC (racemic) [Raciopride] | <6 | <6 | 8-9 | 6-7 | <6 | <6 | <6 | pKi D1 (D1 dopamine receptor): <6 |
| CCNC(=O)N1CCN(CCCC(c2ccc(F)cc2)c2ccc(F)cc2)CC1 [Amperozide] | – | – | – | – | – | – | – | Ki (D4 receptor): > 1000 nM |
| Fc1cccc2c1O[C@H]1CNC[C@@H]1O2 [Fluparoxan] | – | – | – | – | – | – | – | Ki (5-HT2A receptor): > 1000 nM |
| OC1(c2ccc(Cl)cc2)CCN(Cc2c[nH]c3ccccc23)CC1 [L741626] | <6 | 6-7 | 7-8 | – | – | – | – | pKi 5HT2B (5-HT2B receptor): 6-7; pKi 5HT1D (5-HT1D receptor): <6; pKi 5HT1B (5-HT1B receptor): <6 |
| NC(=O)C1(N2CCCCC2)CCN(CCCC(=O)c2ccc(F)cc2)CC1 [Pipamperone, 1′-[3-(p-Fluorobenzoyl)propyl]-[1,4′-bipiperidine]-4′-carboxamide] | – | – | – | – | – | – | – | tolerability in patients with depression ([3]; 1-20 mg/day PO, 8 weeks): generally well tolerated; anti-depressant effect on treatment refractory patients ([3]; 1-20 mg/day PO, 8 weeks, refractory towards SSRIs): apparent; sedative effects ([3]; doses used in the study (1-20 mg/day), observed at higher doses): lacking; anti-depressant effect ([3]; extremely unconventional low dose, 1-20 mg/day PO, 8 weeks, open label): apparent; Ki (D4 receptor): ≤ 10 nM; pKi towards other dopamine receptors (other dopamine receptors): less than 8; pKi towards other 5HT receptors (other 5HT receptors): less than 8 |
| O=C(CC1CCN(CCOc2cccc3c2OCCO3)C1)c1ccc(F)cc1 (centres unmarked) [S16924] | 6-7 | 7-8 | 7-8 | >9 | 8-9 | 8-9 | 7-8 | pKi 5HT7rat (5-HT7 (rat) receptor): 7-8; pKi 5HT6rat (5-HT6 (rat) receptor): 7-8; pKi 5HT2B (5-HT2B receptor): 8-9; pKi Alpha2C [4]: 6-7; pKi Alpha2B [5]: 7-8; pKi Beta1 [6]: <6; pKi Beta2 [7]: <6; pKi D2 (D2 dopamine receptor): 7-8 |
| O=C1N(CCN2CCC(c3noc4cc(F)ccc34)CC2)CCN1c1ccccc1 [S18327] | 6-7 | 8-9 | 6-7 | 8-9 | >9 | 7-8 | 6-7 | pKi D1 (D1 dopamine receptor): 7-8; pKi D2 (D2 dopamine receptor): 7-8 |
| N#Cc1ccc2c(c1)[C@H]1CN(CCCCNC(=O)c3ccc(-c4ccccc4)cc3)C[C@@H]1CO2 [S33084] | <6 | <6 | >9 | 6-7 | 6-7 | <6 | 7-8 | pKi 5HT2B (5-HT2B receptor): 6-7; pKi 5HT1D (5-HT1D receptor): 6-7; pKi D1 (D1 dopamine receptor): 6-7; pKi 5HT1B (5-HT1B receptor): 6-7; pKi D2 (D2 dopamine receptor): 7-8 |
| OCCOCCN1CCN(C2=Nc3ccccc3Sc3ccccc32)CC1 [Seroquel] | – | – | – | – | – | – | – | Ki (5-HT1E receptor): > 1000 nM |
| CN(C)CCOC1=Cc2ccccc2Sc2ccc(Cl)cc21 [Zotepine] | – | – | – | – | – | – | – | Ki (D4 receptor): 10 to 100 nM |
| CN(C)CCCC1(c2ccc(F)cc2)OCc2cc(C#N)ccc21 (centres unmarked) [citalopram] | – | – | – | – | – | – | – | patients reporting one or more of the listed side effects (patients): over 10% |
